Read-outs that look alike come from different tables or passages of the source.
Key:
FBW7^ARG+pCycE = target: T1, FBW7^ARG+pCycE (Homo sapiens, UniProt Q969H0, R505L); assay: FBW7^ARG-cyclin E agonist ALPHAscreen (primary PRUN, confirmation CRUN1, dose-response DRUN); assay type: binding; settings: for Emax / EC50: DRUN dose-response; for Emax: relative to WT-FBW7+pCycE, read-out: FBW7 ACT Averaged Max % Response
T1 construct: GST (TEV site and flexible linker) (N, cleaved yes); made in house; host or cells: SF9 insect cells (baculovirus)
T1 sequence (Q969H0 64-707 R505L): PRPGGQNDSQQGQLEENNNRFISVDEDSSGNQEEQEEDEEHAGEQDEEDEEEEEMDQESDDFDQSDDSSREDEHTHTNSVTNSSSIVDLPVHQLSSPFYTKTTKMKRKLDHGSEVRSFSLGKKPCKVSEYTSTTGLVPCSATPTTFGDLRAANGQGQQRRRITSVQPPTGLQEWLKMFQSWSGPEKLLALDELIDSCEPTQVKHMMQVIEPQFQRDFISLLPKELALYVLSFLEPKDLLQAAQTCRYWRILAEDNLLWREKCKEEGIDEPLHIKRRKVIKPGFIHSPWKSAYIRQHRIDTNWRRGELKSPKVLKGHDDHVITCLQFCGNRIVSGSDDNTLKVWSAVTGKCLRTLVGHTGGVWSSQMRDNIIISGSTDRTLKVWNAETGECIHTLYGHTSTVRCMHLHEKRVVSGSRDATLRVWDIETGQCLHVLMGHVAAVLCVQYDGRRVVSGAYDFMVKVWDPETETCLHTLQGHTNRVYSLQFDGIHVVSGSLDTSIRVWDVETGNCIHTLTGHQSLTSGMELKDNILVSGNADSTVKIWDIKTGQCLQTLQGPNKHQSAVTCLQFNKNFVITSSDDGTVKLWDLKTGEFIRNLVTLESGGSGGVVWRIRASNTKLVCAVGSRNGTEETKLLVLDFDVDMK
T1 sequence (P63208 2-163 partner): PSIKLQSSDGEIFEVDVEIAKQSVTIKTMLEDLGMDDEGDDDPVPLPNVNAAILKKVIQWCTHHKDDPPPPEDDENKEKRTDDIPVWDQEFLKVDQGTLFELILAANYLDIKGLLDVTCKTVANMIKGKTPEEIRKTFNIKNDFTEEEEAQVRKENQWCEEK
Description: FBW7^ARG refers to a class of loss-of-function mutations of the of FBW7 ubiquitin ligase that target a key phosphate-binding arginine residue in the FBW7 substrate-binding domain. These mutations are commonly found in human cancers and promote tumorigenesis by impairing the interactions between FBW7 and its substrates, such as cyclin E and Myc. Described herein is a high throughput screen (HTS) to identify agonists, such as small molecules, that augment FBW7^ARG-substrate binding. In an embodiment, the HTS is based on the Amplified Luminescent Proximity Homogenous Assay (ALPHAscreen) because it detects protein-protein interactions with a large dynamic range. ALPHAscreen is a bead-based proximity assay wherein donor beads contain a photosensitizer, phthalocyanine, and acceptor beads contain thioxene, anthracene and rubrenein in sufficient quantities to generate a chemiluminescence/fluorescence reaction (FIG. 4A). Upon excitation with excitation illumination, such as light having a wavelength of 680 nm, of the donor beads, phthalocyanine converts ambient oxygen to singlet oxygen, which can diffuse approximately 200 nm within its 4-microsecond half-life. If an acceptor bead is in close proximity to an excited donor bead, singlet oxygen transfers its energy to the acceptor, resulting in emitted light at a broad bandwidth of −520-620 nm. The HTS-compatible FBW7/cyclin E ALPHAscreen assay described herein uses streptavidin coupled donor beads and Ni-chelate acceptor beads. In this assay, biotinylated cyclin E phosphopeptide and the His-tagged FBW7 mutant protein have high affinity for the donor and acceptor beads, respectively (FIG. 4B). A small molecule that is able to bridge the binding sites of the peptide and the mutant protein (or induce a conformational change that increases affinity of the protein for the peptide) will bring the donor and acceptor beads in close proximity to each other, resulting in an ALPHA signal. As designed, this assay format is a very sensitive, non-radioactive, homogenous “mix-and-read” format that is HT compatible in 384 and 1536 well formats.
In the 384-well screening assay, 10 uL of acceptor beads with 25 nM of the FBW7^ARG (RLFBW7) are dispensed to test wells; acceptor beads with 25 nM of the wt-FBW7 protein (WTFBW7) are dispensed to control wells. Test compounds are then added by pintool transfer and the mixture is incubated for 30 minutes. An additional 10 uL of donor beads with 25 nM cyclin E phosphopeptide is then added to all wells and the plate is incubated for 4 hours before the ALPHA signal is measured.
In preparation for large-scale screening, the assay was miniaturized to a 1536-well format. The miniaturized screen performed outstandingly in all respects. The screen was enhanced with respect to several parameters and assayed its performance using mutant FBW7 and wt-FBW7, as well as non-specific assay agonists. […] For example, the following Z′-scores/FBW7 concentrations were obtained: 6.25 nM/Z′=0.62, 12.5 nm/Z′=0.85, 25.0 nM/Z′=0.84.
1. Add 2.5 uL of RLFBW7/cycE˜P/Ni beads: Final [25 nM/25 nM/10 ug/ml].
2. Add 2.5 uL of WTFBW7/cycE˜P/Ni beads: Final [25 nM/25 nM/10 ug/ml].
4. Add 2.5 uL of SA beads to all wells Final [10 ug/ml],
5. Add 30 nL of compounds,
6. Read ALPHAscreen on Envision
The large-scale FBW7 agonist ALPHAscreen was completed using FBW7^ARG and a phosphorylated cyclin E (pCycE) degron peptide. Wt-FBW7+pCycE-peptide was the “high control”, and Wt-FBW7+unphosph. CycE peptide was the “low control”. The screen was performed on the 645,000-compound Scripps Diversity Library using 1536-well format and drug concentrations of 26.1 μM. An algorithm aided hit identification based on the average percent activation for all compounds and their standard deviation.
A confirmation assay of all 853 compounds in triplicate using a single concentration (26.1 μM). […]

FBW7^ARG (RLFBW7) alone = target: T2, FBW7^ARG (RLFBW7) alone (Homo sapiens, UniProt Q969H0, R505L); assay: Counterscreen 1 ALPHAscreen with FBW7^ARG alone (CSRUN1/DCSRUN1); assay type: binding; settings: dose-response counterscreen; for Emax: read-out: RLFBW7 ACT DCSRUN1 Averaged Max % Response
T2 construct: GST (TEV site and flexible linker) (N, cleaved yes); made in house; host or cells: SF9 insect cells (baculovirus)
T2 sequence (Q969H0 64-707 R505L): as the sequence (Q969H0 64-707 R505L) above
T2 sequence (P63208 2-163 partner): as the sequence (P63208 2-163 partner) above
Procedure: Studies in 384-well format were performed using the ENVISION system. Reagent concentrations (see FIG. 6A), order of addition, pH (see FIG. 6B), and reducing agent were altered with the goal of enhancing the dynamic range between wt-FBW7 (the positive control) and FBW7^ARG (FIG. 6 and not shown). Wt-FBW7 produced a signal 100× greater with phosphorylated cyclin E degron peptide compared with unphosphorylated, which represents the assay's maximum range (FIG. 6C). […] This assay thus detects the residual affinity of the FBW7^ARG-substrate interaction, which, as predicted, is stronger than wt-FBW7 protein with unphosphorylated cyclin E peptide. Concurrent with this primary assay, counter ALPHAscreens were developed which omitted either FBW7 or peptide (to eliminate hits that are general ALPHAscreen agonists), or used an irrelevant phosphopeptide (to eliminate compounds that simply augment binding to phosphopeptides). […]
The 77 hits were subjected to a dose-response assay in which each compound was tested in triplicate in a 10 point 3-fold dilutional series, to a maximum concentration of approximately 87 μM. Three screens were performed, using FBW7^ARG+pCycE (DRUN), FBW7^ARG (DCSRUN1), or pCycE alone (DCSRUN2). See TABLES 2, 3, and 4, respectively, and FIG. 10A. All of the assays performed extremely well, and threshold of 10% activation (relative to WT-FBW7+pCycE) was set as positive. […] Many hits fell into shared structure cluster ID groups, reinforcing the idea that they function as specific agonists (see below and TABLE 5).

[1] = triplicate, 10 point 3-fold dilution, max approx. 87 μM, read-out: FBW7 ACT Final EC50, Molar
[2] = confirmation assay, triplicate, single concentration 26.1 μM, read-out: FBW7 ACT CRUN1 Avg % Response and Stdev
[3] = primary screen, 1536-well, 26.1 μM, FBW7^ARG + pCycE degron peptide, high control wt-FBW7+pCycE, read-out: FBW7 ACT PRUN % Response
[4] = raw curve fit, read-out: RLFBW7 ACT DCSRUN1 EC50 Curve Fit Raw
[5] = read-out: RLFBW7 ACT DCSRUN1 Final EC50
[6] = raw curve fit, read-out: FBW7 ACT EC50 Curve Fit Raw, Molar

Row | Emax (FBW7^ARG+pCycE) | EC50 (FBW7^ARG+pCycE; [1]) | activation at 26.1 µM (FBW7^ARG+pCycE; [2]) | activation at 26.1 µM (FBW7^ARG+pCycE; [3]) | EC50 (FBW7^ARG (RLFBW7) alone; [4]) | Emax (FBW7^ARG (RLFBW7) alone) | EC50 (FBW7^ARG (RLFBW7) alone; [5]) | EC50 (FBW7^ARG+pCycE; [6]) | SMILES
1 | 10.6% | > 65.3 µM | 3.72 ± 0.2% | 2.14% | 21.2 µM | 2.25% | > 65.3 µM | 22.1 µM | COc1ccccc1N1C(=O)c2ccc(C(=O)Nc3cc([N+](=O)[O-])ccc3O)cc2C1=O [SR-01000236956-1]
2 | 7.3% | > 56.6 µM | 10.7 ± 0.62% | 1.88% | 0.136 µM | -0.031% | > 56.6 µM | 0.0458 µM | O=C(Nc1ccc2oc(-c3ccc4ccccc4c3)nc2c1)c1cccc(Cl)c1Cl [SR-01000415504-1]
3 | 20% | > 65.3 µM | 4.71 ± 0.2% | 1.94% | 28.3 µM | 100% | 28.2 µM | 31.5 µM | O=C(NCc1ccc(C(=O)NCCc2ccccn2)cc1)Nc1ccc(-c2cn[nH]c2)cc1 [SR-00000005517-1]
4 | 16.5% | > 40.4 µM | 7.38 ± 0.72% | 4.51% | 0.0053 µM | 2.4% | > 40.4 µM | 7.1 µM | CCc1ccc(N2CC(C(=O)NCC(C)(C)CNC(=O)C3CC(=O)N(c4ccc(CC)cc4)C3)CC2=O)cc1 (stereo not shown) [SR-01000537224-1]

More lines, now with the values behind:

Row | SMILES | Emax (FBW7^ARG+pCycE) | EC50 (FBW7^ARG+pCycE; [1]) | activation at 26.1 µM (FBW7^ARG+pCycE; [2]) | activation at 26.1 µM (FBW7^ARG+pCycE; [3]) | EC50 (FBW7^ARG (RLFBW7) alone; [4]) | Emax (FBW7^ARG (RLFBW7) alone) | EC50 (FBW7^ARG (RLFBW7) alone; [5]) | EC50 (FBW7^ARG+pCycE; [6])
5 | O=C([C@H]1CC[C@H](Nc2nccc(-c3ccc4nc(C5CC5)nc(O)c4c3)n2)CC1)N1CCCC1 [SR-00000008677-1] | 35.9% | > 65.3 µM | 4.42 ± 0.03% | 2.63% | 0.0572 µM | 0.06% | > 65.3 µM | –
6 | Cc1ccnc(N2CCC(C(=O)Nc3ccccc3Br)CC2)n1 [SR-01000330228-1] | 6.46% | > 65.3 µM | 3.43 ± 0.23% | 2.08% | – | 0.25% | > 65.3 µM | 0.0482 µM
7 | Cc1cccc(CC(=O)Nc2cnn(-c3cccc(C(=O)N4CCNC(=O)CC4)c3)c2)c1 [SR-01000188911-1] | 23.6% | > 65.3 µM | 2.88 ± 0.43% | 4.34% | 1.7 µM | -0.141% | > 65.3 µM | 7.5 µM
8 | COc1cc2c(cc1OC)C(COc1ccc([N+](=O)[O-])cc1)N(C(=O)c1ccc3c(c1)OCO3)CC2 (stereo not shown) [SR-01000568734-1] | 16% | > 49.8 µM | 3.13 ± 0.23% | 2.1% | – | 1.58% | > 49.8 µM | 9.2 µM
